The values that follow come from ChEMBL document CHEMBL3585290, “Synthesis and biological evaluation of novel bivalent -carbolines as potential antitumor agents” (Medchemcomm, 2014).

Data set [1] can be described thus: Acute toxicity in ip dosed C57BL/6 mouse measured for 14 days. The class given is organism-based. Conditions: in vivo.
For data set [2], the system named is CT26. The experiment in a line: Antitumor activity against mouse CT26 cells implanted in mouse assessed as tumor growth inhibition at 212.1 umol/kg, ip qd administered for 7 days starting 24 hrs post tumor implantation measured after day 21 relative to control. The class given is functional. Conditions: read-out: TGI.
Data set [3] deals with Lewis lung carcinoma cell line. The experiment in a line: Antitumor activity against mouse LLC cells implanted in mouse assessed as tumor growth inhibition at 212.1 umol/kg, ip qd administered for 7 days starting 24 hrs post tumor implantation measured after day 21 relative to control. The data set is classed as functional. Conditions: read-out: TGI.
In a further data set the test system is KB. The data set is described as follows: Cytotoxicity against human KB cells after 48 hrs by MTT assay. The class given is functional, cell-based. (In general: Formazan colour is commonly taken as a measure of viable cells.)
The next data set deals with A-375. The experiment in a line: Cytotoxicity against human A375 cells after 48 hrs by MTT assay. The class given is functional, cell-based. The settings on record: A-375, 48 h.
Another data set deals with 769-P. The data set is described as follows: Cytotoxicity against human 769-P cells after 48 hrs by MTT assay. The data set is classed as functional, cell-based.
Data set [4] in a line: Cytotoxicity against human BGC823 cells after 48 hrs by MTT assay. The data set is classed as functional, cell-based. The settings on record: BGC-823, 48 h.
A further data set relates to SK-OV-3. The experiment in a line: Cytotoxicity against human SKOV3 cells after 48 hrs by MTT assay. The data set is classed as functional, cell-based. The settings on record: SK-OV-3, 48 h.
Data set [5] has as its system Lewis lung carcinoma cell line. The experiment in a line: animal or person. Conditions: Mus musculus, ip, read-out: TGI.
Description: Antitumor activity against mouse LLC cells implanted in mouse assessed as tumor growth inhibition at 114.9 umol/kg, ip qd administered for 7 days starting 24 hrs post tumor implantation measured after day 21 relative to control
Data set [6] relates to CT26. The data set is described as follows: animal or person. Conditions: Mus musculus, CT26, ip, read-out: TGI.
Description: Antitumor activity against mouse CT26 cells implanted in mouse assessed as tumor growth inhibition at 114.9 umol/kg, ip qd administered for 7 days starting 24 hrs post tumor implantation measured after day 21 relative to control
The subject of data set [7] is Lewis lung carcinoma cell line. The experiment in a line: Antitumor activity against mouse LLC cells implanted in mouse assessed as tumor growth inhibition at 11.1 umol/kg, ip qd administered for 7 days starting 24 hrs post tumor implantation measured after day 21 relative to control. The data set is classed as functional. Conditions: read-out: TGI.
Data set [8] has as its system CT26. The data set is described as follows: Antitumor activity against mouse CT26 cells implanted in mouse assessed as tumor growth inhibition at 11.1 umol/kg, ip qd administered for 7 days starting 24 hrs post tumor implantation measured after day 21 relative to control. The class given is functional. Conditions: read-out: TGI.
Data set [9] relates to CT26. The data set is described as follows: Antitumor activity against mouse CT26 cells implanted in mouse assessed as tumor growth inhibition at 223.8 umol/kg, ip qd administered for 7 days starting 24 hrs post tumor implantation measured after day 21 relative to control. The class given is functional. Conditions: read-out: TGI.
In data set [10] the test system is Lewis lung carcinoma cell line. The data set is described as follows: Antitumor activity against mouse LLC cells implanted in mouse assessed as tumor growth inhibition at 223.8 umol/kg, ip qd administered for 7 days starting 24 hrs post tumor implantation measured after day 21 relative to control. The data set is classed as functional. Conditions: read-out: TGI.

For data set [11], the system named is Lewis lung carcinoma cell line. The data set is described as follows: Antitumor activity against mouse LLC cells implanted in mouse assessed as tumor growth inhibition at 26.9 umol/kg, ip qd administered for 7 days starting 24 hrs post tumor implantation measured after day 21 relative to control. The settings on record: read-out: TGI. The data set is classed as functional.

Data set [12] relates to CT26. The data set is described as follows: Antitumor activity against mouse CT26 cells implanted in mouse assessed as tumor growth inhibition at 26.9 umol/kg, ip qd administered for 7 days starting 24 hrs post tumor implantation measured after day 21 relative to control. The class given is functional. The settings on record: read-out: TGI.

pIC50: −log10 of the molar value.

Usually LD50 stands for the dose expected to kill half of the subjects tested. Read a high LD50 as a less toxic substance. Broadly, the pIC50 is the IC50 on a negative log10 scale, so that one unit is a factor of ten. A high value points to a small IC50. With `O=C(O)c1cc2c3ccccc3n(CCCc3ccccc3)c2cn1`, the LD50 at 336 h in [1] came out at 1090 µmol/kg. Also, the inhibition in vivo at 212.1 µmol/kg was 20.3% with CT26 [2] and 40.3% in [3]. Moreover, the pIC50 is 4.06 with KB; 4.17 in the data set on A-375; 4.25 in the data set with 769-P; 4.44 in [4]; less than 3.70 in the data set on SK-OV-3.
On to `O=P1(N(CCCl)CCCl)NCCCO1` (centres undefined) [CYCLOPHOSPHAMIDE ANHYDROUS], for which the results for the inhibition in vivo at 114.9 µmol/kg (in data set [5]; in the data set with CT26 [6]) were 88.1% and 87.6%, respectively.
As to `COc1ccc(-c2nc(C(=O)OCCCCCCOC(=O)c3cc4c5ccccc5n(CCCc5ccccc5)c4c(-c4ccc(OC)cc4)n3)cc3c4ccccc4n(CCCc4ccccc4)c23)cc1`, the LD50 at 336 h in data set [1] stood at 55.8 µmol/kg. For the same molecule, the pIC50 with KB was 3.66; in the data set with A-375 it was 3.88; in the data set with 769-P, 4.02; in data set [4], 3.85; in the data set on SK-OV-3, less than 3.70. Moreover, the inhibition in vivo at 11.1 µmol/kg in [7] came out at 24.6%; with CT26 [8] it was 15.1%.
For the molecule `CCCCn1c2ccccc2c2cc(C(=O)O)ncc21`, the 50% lethal dose (LD50) at 336 h in data set [1] is 1120 µmol/kg. Further, the pIC50 in the data set on KB is 4.17; in the data set on A-375, 4.10; with 769-P it was 4.37; in [4], 3.90; in the data set with SK-OV-3, less than 3.70. Moreover, the results for the inhibition in vivo at 223.8 µmol/kg (with CT26 [9]; in data set [10]) were 18.7% and 45.4%, respectively.
As for `O=C(OCCCCCCOC(=O)c1cc2c3ccccc3n(CCCc3ccccc3)c2cn1)c1cc2c3ccccc3n(CCCc3ccccc3)c2cn1`, the inhibition in vivo at 26.9 µmol/kg in data set [11] was determined as 53.5%; in the data set with CT26 [12], 28.3%. In addition, the LD50 at 336 h in data set [1] stood at 135 µmol/kg. Further, the pIC50 in the data set with KB was 4.25; with A-375 it was 4.84; in the data set with 769-P, 4.53; in [4], less than 3.70; in the data set with SK-OV-3, 5.07.
